Assay results reported in US9452985B2, “Tau imaging probe” (GE Healthcare Limited, priority 2010, dated 2016).
Structures can show the parent of a compound that is named as a salt.

Tested on: neurofibrillary tangles
Test: Staining test on brain section of Alzheimer's disease patients
Type: binding, human
Conditions: 100 μM solution in 50% ethanol, 10 minutes, fluorescence microscope
From the text: The procedure of staining test on the compounds of the present invention on the brain section of Alzheimer's disease patients is described below:
(1) We used the brain specimens of the temporal lobe or hippocampus from patients who were definitely diagnosed as having Alzheimer's disease pathology. The specimens were obtained from Choju Medical Institute, Fukushimura Hospital, our collaborating research institute, and the consent for use for research purposes was obtained from the patients' bereaved family (Fukushimura Hospital, Ethics Committee Approval No. 20).
(2) The paraffin-embedded brain tissue was sliced to 6 or 8 μm thickness, extended on a slide glass, and dried. The paraffinized brain section was deparaffinized by washing with xylene for 10 minutes×2, 100% ethanol for 5 minutes×2, 90% ethanol for 5 minutes, and running water for 10 minutes in this order.
(3) As a pretreatment for staining with the compounds of the present invention, the treatment to remove autofluorescence with lipofuscin was performed. First, the paraffinized brain section was immersed in 0.25% KMnO4 solution for 20 minutes. It was washed with PBS for 2 minutes twice, immersed in a 0.1% K2S2O5/oxalic acid solution for approximately 5 minutes, and further washed with PBS for 2 minutes 3 times.
(4) From 100 μM solution of the compounds of the present invention dissolved in 50% ethanol, approximately 150 μl was dropped on the section to react for 10 minutes. After being immersed in tap water 5 times, it was mounted with Flour Save Reagent (Calbiochem) and examined with a fluorescence microscope (Nikon, ECLIPSE 80i). The images were taken with a digital camera (Nikon, Dxin1200F or Photometrics, Cool SNAP ES).

Row | Compound | binding to neurofibrillary tangles in the brain section of Alzheimer's disease patients (staining test)
1 | Nc1cccc2nc(-c3ccc(F)cc3)ccc12 [THK-5079, 5-amino-2-(4-fluorophenyl)quinoline] | bind to neurofibrillary tangles specifically and selectively
2 | Nc1ccc2ccc(-c3ccc(F)cc3)nc2c1 [THK-5075, 7-amino-2-(4-fluorophenyl)quinoline] | bind to neurofibrillary tangles specifically and selectively
3 | CCN(CC)c1ccc(-c2ccc3c(OC(CO)CF)cccc3n2)cc1 (stereo not shown) [THK-5064, 2-(4-diethylaminophenyl)-5-(1-fluoromethyl-2-hydroxyethoxy)quinoline] | bind to neurofibrillary tangles specifically and selectively
4 | Nc1ccc2nc(-c3ccc(F)cc3)ccc2c1 [THK-5086, 6-amino-2-(4-fluorophenyl)quinoline] | bind to neurofibrillary tangles specifically and selectively
5 | CN1CCCc2cc(-c3ccc4cc(OC(C)(C)C(O)CF)ccc4n3)ccc21 (stereo not shown) [THK-5157, 6-[(3-fluoro-2-hydroxy-1,1-dimethyl)propoxy]-2-(1-methyl-1,2,3,4-tetrahydroquinolin-6-yl)quinoline] | bind to neurofibrillary tangles specifically and selectively
6 | CCN(CC)c1cccc2nc(-c3ccc(F)nc3)ccc12 [THK-5092, 5-diethylamino-2-(2-fluoropyrid-5-yl)quinoline] | bind to neurofibrillary tangles specifically and selectively
7 | Nc1ccc(-c2ccc3ccc(OC(CO)CF)cc3n2)cn1 (stereo not shown) [THK-932, 2-(2-aminopyrid-5-yl)-7-(1-fluoromethyl-2-hydroxyethoxy)quinoline] | bind to neurofibrillary tangles specifically and selectively
8 | Nc1cccc2ccc(-c3ccc(F)cc3)nc12 [THK-5081, 8-amino-2-(4-fluorophenyl)quinoline] | bind to neurofibrillary tangles specifically and selectively
9 | CN(C)c1ccc2nc(-c3ccc(N(C)C)c(OCC(O)CF)c3)ccc2c1 (stereo not shown) [THK-5156, 2-[3-[(3-fluoro-2-hydroxy)propoxy]-4-(dimethylamino)phenyl]-6-dimethylaminoquinoline] | bind to neurofibrillary tangles specifically and selectively
10 | CCN(CC)c1ccc(-c2ccc3ccc(OCC(O)CF)cc3n2)cc1 (stereo not shown) [THK-5038, 2-(4-diethylaminophenyl)-7-(2-fluoromethyl-2-hydroxyethoxy)quinoline] | bind to neurofibrillary tangles specifically and selectively
11 | CCN(CC)c1ccc(-c2ccc3ccc(OC(CO)CF)cc3n2)cc1 (stereo not shown) [THK-5058, 2-(4-diethylaminophenyl)-7-(1-fluoromethyl-2-hydroxyethoxy)quinoline] | bind to neurofibrillary tangles specifically and selectively
12 | CN1CCOc2cc(-c3ccc4cc(OCC(O)CF)ccc4n3)cnc21 (stereo not shown) [THK-5136, 6-[(3-fluoro-2-hydroxy)propoxy]-2-(4-methyl-3,4-dihydro-2H-pyrido[3,2-b][1,4]oxazin-7-yl)quinoline] | bind to neurofibrillary tangles specifically and selectively
13 | CN(C)c1cccc2ccc(-c3ccc(F)cc3)nc12 [THK-5082, 2-(4-fluorophenyl)-8-dimethylaminoquinoline] | bind to neurofibrillary tangles specifically and selectively
14 | CCN(CC)c1ccc(-c2cc(OCC(O)CF)c3ccccc3n2)cc1 (stereo not shown) [THK-5059, 2-(4-diethylaminophenyl)-4-(3-fluoro-2-hydroxypropoxy)quinoline] | bind to neurofibrillary tangles specifically and selectively
15 | Nc1ccc2nc(-c3ccc(N)c(OCC(O)CF)c3)ccc2c1 (stereo not shown) [THK-5155, 6-amino-2-[4-(amino)-3-[(3-fluoro-2-hydroxy)propoxy]phenyl]quinoline] | bind to neurofibrillary tangles specifically and selectively
16 | CNc1ccc(-c2ccc3ccc(OCC(O)CF)cc3n2)cc1 (stereo not shown) [THK-5106, 7-[(3-fluoro-2-hydroxy)propoxy]-2-(4-methylaminophenyl)quinoline] | bind to neurofibrillary tangles specifically and selectively
17 | CCN(CC)c1ccc2ccc(-c3ccc(F)nc3)nc2c1 [THK-5097, 7-diethylamino-2-(2-fluoropyrid-5-yl)quinoline] | bind to neurofibrillary tangles specifically and selectively
18 | CNc1ccc(-c2ccc3cc(N(C)C)ccc3n2)cc1OCC(O)CF (stereo not shown) [THK-5164, 2-[3-[(3-fluoro-2-hydroxy)propoxy]-4-(methylamino)phenyl]-6-dimethylamino quinoline] | bind to neurofibrillary tangles specifically and selectively
19 | CN(C)c1cccc2nc(-c3ccc(F)cc3)ccc12 [THK-5080, 2-(4-fluorophenyl)-5-dimethylaminoquinoline oxalate] | bind to neurofibrillary tangles specifically and selectively
20 | CCN(CC)c1ccc(-c2nc3ccccc3cc2OC(CO)CF)cc1 (stereo not shown) [THK-5065, 2-(4-diethylaminophenyl)-3-(1-fluoromethyl-2-hydroxyethoxy)quinoline] | bind to neurofibrillary tangles specifically and selectively
21 | CCN(CC)c1ccc(-c2ccc3cccc(OCC(O)CF)c3n2)cc1 (stereo not shown) [THK-5066, 2-(4-diethylaminophenyl)-8-[(3-fluoro-2-hydroxy)propoxy]quinoline] | bind to neurofibrillary tangles specifically and selectively
22 | CN(C)c1ccc2nc(-c3ccc(F)cc3)ccc2c1 [THK-5087, 2-(4-fluorophenyl)-6-dimethylaminoquinoline] | bind to neurofibrillary tangles specifically and selectively
23 | CN(C)c1ccc(-c2ccc3ccc(OC(CO)CF)cc3n2)cc1 (stereo not shown) [THK-5071, 2-(4-fluoromethyl-2-hydroxyethoxy)-2-(4-dimethylaminophenyl)quinoline] | bind to neurofibrillary tangles specifically and selectively
24 | CN(C)c1ccc(-c2ccc3ccc(OCC(O)CF)cc3n2)cc1 (stereo not shown) [THK-5107, 7-[(3-fluoro-2-hydroxy)propoxy]-2-(4-dimethylaminophenyl)quinoline] | bind to neurofibrillary tangles specifically and selectively
25 | CN(C)c1ccc2ccc(-c3ccc(F)cc3)nc2c1 [THK-5076, 2-(4-fluorophenyl)-7-dimethylaminoquinoline] | bind to neurofibrillary tangles specifically and selectively
